From patent US20200368312A1 (priority 2017, published 2020)
≈ marks a conversion by molar mass, not a printed value. Where two headings read alike, the source gives them in different places.

How the values were obtained:
Type in all cases: cell-based
S. epidermidis (CoNS) = experiment: Broth microdilution MIC, S. epidermidis (CoNS) (Table 7)
C. perfringens = tested on: C. perfringens
Enterococci = tested on: Enterococci
P. acnes = experiment: Broth microdilution MIC, P. acnes (Table 7)
Staphylococcus aureus = experiment: microbe, parasite or virus in culture; conditions: for MIC: Staphylococcus aureus, read-out: MIC
P. micros = experiment: Broth microdilution MIC, P. micros (Table 7); conditions: P. micros MMX 3546
S. hominis (CoNS) = experiment: Broth microdilution MIC, S. hominis (CoNS) (Table 7); conditions: S. hominis (CoNS) MMX 667 ATCC 27844
Streptococci = experiment: Broth microdilution MIC, Streptococci (Example 11, Table 7)
S. lugdenensis (CoNS) = experiment: Broth microdilution MIC, S. lugdenensis (CoNS) (Table 7); conditions: S. lugdenensis (CoNS) MMX 8724
S. haemolyticus (CoNS) = experiment: Broth microdilution MIC, S. haemolyticus (CoNS) (Table 7); conditions: S. haemolyticus (CoNS) MMX 529 ATCC 29970
P. anaerobius = experiment: Broth microdilution MIC, P. anaerobius (Table 7); conditions: P. anaerobius MMX 1208 ATCC 27337
Clostridium difficile = experiment: Broth microdilution MIC, C. difficile, anaerobic, supplemented Brucella Broth (Example 11, Table 7); conditions: C. difficile MMX 4381 ATCC 700057, toxinAB-negative
[1] = S. epidermidis (CoNS) MMX 762, MRSE
[2] = S. epidermidis (CoNS) MMX 5145, MRSE
[3] = E. faecalis MMX 101 ATCC 29212, VSE
[4] = ATCC 33591 / MRSA, S. aureus MMX 5717 ATCC 33591, MRSA
[5] = ATCC BAA-1756 / MRSA, S. aureus MMX 2011 ATCC BAA-1756, MRSA
[6] = VISA, S. aureus MMX 1723, Mu50, VISA
[7] = VISA, S. aureus MMX 2124, VISA, DaptoNS
[8] = S. anginosus (AGS) MMX 1201 ATCC 33397
[9] = S. pneumoniae MMX 1195 ATCC 49619, PISP

Compound `CN[C@H](CC(C)C)C(=O)N[C@H]1C(=O)N[C@@H](CC(N)=O)C(=O)N[C@H]2C(=O)N[C@H]3C(=O)N[C@H](C(=O)N[C@H](C(=O)O)c4cc(O)cc(O)c4-c4cc3ccc4O)[C@H](O)c3ccc(c(Cl)c3)Oc3cc2cc(c3O[C@@H]2O[C@H](CO)[C@@H](O)[C@H](O)[C@H]2O[C@H]2C[C@](C)(N)[C@H](O)[C@H](C)O2)Oc2ccc(cc2Cl)[C@H]1O` [Vancomycin] has an MIC (S. epidermidis (CoNS); [1]) of 2 µg/mL (≈ 1.38 µM), an MIC (S. epidermidis (CoNS); [2]) of 1 µg/mL (≈ 0.69 µM) and an MIC (C. perfringens) of 0.5 µg/mL (≈ 0.345 µM). The MIC (Enterococci; [3]) was 2 µg/mL (≈ 1.38 µM), the MIC (Enterococci; E. faecalis MMX 1086, VanA VRE) was over 64 µg/mL and the MIC (Enterococci; E. faecalis MMX 4176) was 1 µg/mL (≈ 0.69 µM). It also gave an MIC (Enterococci; E. faecium MMX 173, VanB VRE) of over 64 µg/mL, an MIC (Enterococci; E. faecium MMX 851, VanA VRE) of over 64 µg/mL and an MIC (Enterococci; E. faecium MMX 4204) of 0.5 µg/mL (≈ 0.345 µM). The MIC (P. acnes; P. acnes MMX 7942 ATCC 6919) was 0.25 µg/mL (≈ 0.173 µM), the MIC (P. acnes; P. acnes MMX 7946 ATCC 11827) was 0.25 µg/mL (≈ 0.173 µM) and the “RV40 activity as compared to Comparator” value (Staphylococcus aureus) was 86 ×. The MIC (Staphylococcus aureus; [4]) was 1 µg/mL (≈ 0.69 µM), the MIC (Staphylococcus aureus; [5]) was 1 µg/mL (≈ 0.69 µM) and the MIC (Staphylococcus aureus; MRSA, S. aureus MMX 2010, MRSA) was 1 µg/mL (≈ 0.69 µM). The MIC (Staphylococcus aureus; MRSA, S. aureus MMX 3982, MRSA) was 0.5 µg/mL (≈ 0.345 µM), the MIC (Staphylococcus aureus; MRSA, S. aureus MMX 5985, MRSA) was 0.5 µg/mL (≈ 0.345 µM) and the MIC (Staphylococcus aureus; MRSA, S. aureus MMX 5999, MRSA) was 0.5 µg/mL (≈ 0.345 µM). For the same compound, the MIC (Staphylococcus aureus; MRSA, S. aureus MMX 7899, MRSA) was 0.5 µg/mL (≈ 0.345 µM), the MIC (Staphylococcus aureus; MRSA, S. aureus MMX 7900, MRSA) was 0.5 µg/mL (≈ 0.345 µM) and the MIC (Staphylococcus aureus; MRSA, S. aureus MMX 7901, MRSA) was 0.5 µg/mL (≈ 0.345 µM). For the same compound, the MIC (Staphylococcus aureus; MRSA, S. aureus MMX 7902, MRSA) was 1 µg/mL (≈ 0.69 µM), the MIC (Staphylococcus aureus; MRSA, S. aureus MMX 7903, MRSA) was 1 µg/mL (≈ 0.69 µM) and the MIC (Staphylococcus aureus; MSSA, S. aureus MMX 2490, MSSA) was 1 µg/mL (≈ 0.69 µM). The MIC (Staphylococcus aureus; MSSA, S. aureus MMX 7907, MSSA) was 0.5 µg/mL (≈ 0.345 µM), the MIC (Staphylococcus aureus; MSSA, S. aureus MMX 7908, MSSA) was 1 µg/mL (≈ 0.69 µM) and the MIC (Staphylococcus aureus; S. aureus MMX 4665, hVISA) was 4 µg/mL (≈ 2.76 µM). The MIC (Staphylococcus aureus; S. aureus MMX 5989, Mu3, hVISA) was 1 µg/mL (≈ 0.69 µM), the MIC (Staphylococcus aureus; [6]) was 8 µg/mL (≈ 5.52 µM) and the MIC (Staphylococcus aureus; [7]) was 4 µg/mL (≈ 2.76 µM). The MIC (Staphylococcus aureus; VISA, S. aureus MMX 4658, VISA) was 4 µg/mL (≈ 2.76 µM), the MIC (Staphylococcus aureus; VISA, S. aureus MMX 4660, VISA) was 4 µg/mL (≈ 2.76 µM) and the MIC (P. micros) was 0.5 µg/mL (≈ 0.345 µM). For the same compound, the MIC (S. hominis (CoNS)) was 0.5 µg/mL (≈ 0.345 µM), the MIC (Streptococci; S. agalactiae MMX 427 ATCC 13813) was 0.25 µg/mL (≈ 0.173 µM) and the MIC (Streptococci; S. agalactiae MMX 4088) was 0.25 µg/mL (≈ 0.173 µM). For the same compound, the MIC (Streptococci; S. agalactiae MMX 4115, erm^R) was 0.25 µg/mL (≈ 0.173 µM), the MIC (Streptococci; [8]) was 0.5 µg/mL (≈ 0.345 µM) and the MIC (Streptococci; S. constellatus (AGS) MMX 5677) was 0.25 µg/mL (≈ 0.173 µM). For the same compound, the MIC (Streptococci; S. dysgalactiae MMX 5121) was 0.25 µg/mL (≈ 0.173 µM), the MIC (Streptococci; S. dysgalactiae MMX 5123) was 0.5 µg/mL (≈ 0.345 µM) and the MIC (Streptococci; S. dysgalactiae MMX 5124) was 0.25 µg/mL (≈ 0.173 µM). The MIC (Streptococci; S. mitis (MGS) MMX 1205 ATCC 49456) was 0.5 µg/mL (≈ 0.345 µM), the MIC (Streptococci; S. mitis (MGS) MMX 5798) was 0.25 µg/mL (≈ 0.173 µM) and the MIC (Streptococci; S. oralis (MGS) MMX 5821) was 0.25 µg/mL (≈ 0.173 µM). The MIC (Streptococci; S. pneumoniae MMX 432, PRSP) was 0.25 µg/mL (≈ 0.173 µM), the MIC (Streptococci; S. pneumoniae MMX 747) was 0.12 µg/mL (≈ 0.0828 µM) and the MIC (Streptococci; [9]) was 0.25 µg/mL (≈ 0.173 µM). For the same compound, the MIC (Streptococci; S. pyogenes MMX 404 ATCC 19615) was 0.25 µg/mL (≈ 0.173 µM), the MIC (Streptococci; S. pyogenes MMX 946, ermR) was 0.25 µg/mL (≈ 0.173 µM) and the MIC (Streptococci; S. pyogenes MMX 8778) was 0.25 µg/mL (≈ 0.173 µM). It also gave an MIC (S. lugdenensis (CoNS)) of 0.5 µg/mL (≈ 0.345 µM), an MIC (S. haemolyticus (CoNS)) of 1 µg/mL (≈ 0.69 µM) and an MIC (P. anaerobius) of 0.25 µg/mL (≈ 0.173 µM).

`CC(=O)NC[C@H]1CN(c2ccc(N3CCOCC3)c(F)c2)C(=O)O1` [Linezolid] showed an MIC (S. epidermidis (CoNS); [1]) of 2 µg/mL (≈ 5.93 µM), an MIC (S. epidermidis (CoNS); [2]) of 0.5 µg/mL (≈ 1.48 µM) and an MIC (Enterococci; [3]) of 2 µg/mL (≈ 5.93 µM). It also gave an MIC (Enterococci; E. faecalis MMX 1086, VanA VRE) of 2 µg/mL (≈ 5.93 µM), an MIC (Enterococci; E. faecalis MMX 4176) of 4 µg/mL (≈ 11.9 µM) and an MIC (Enterococci; E. faecium MMX 173, VanB VRE) of 4 µg/mL (≈ 11.9 µM). The MIC (Enterococci; E. faecium MMX 851, VanA VRE) was 2 µg/mL (≈ 5.93 µM), the MIC (Enterococci; E. faecium MMX 4204) was 2 µg/mL (≈ 5.93 µM) and the “RV40 activity as compared to Comparator” value (Staphylococcus aureus; MRSA strains (Table 5), […]) was 214 ×. It also gave an MIC (Staphylococcus aureus; ATCC 29213 / MSSA, S. aureus MMX 100 ATCC 29213, MSSA (quality control)) of 4 µg/mL (≈ 11.9 µM), an MIC (Staphylococcus aureus; [4]) of 1 µg/mL (≈ 2.96 µM) and an MIC (Staphylococcus aureus; ATCC BAA-1556 / MRSA, S. aureus MMX 4675 ATCC BAA-1556, MRSA) of 1.5 µg/mL (≈ 4.45 µM). The MIC (Staphylococcus aureus; [5]) was 2 µg/mL (≈ 5.93 µM), the MIC (Staphylococcus aureus; MRSA, S. aureus MMX 2010, MRSA) was 3 µg/mL (≈ 8.89 µM) and the MIC (Staphylococcus aureus; MRSA, S. aureus MMX 3982, MRSA) was 3 µg/mL (≈ 8.89 µM). The MIC (Staphylococcus aureus; MRSA, S. aureus MMX 5985, MRSA) was 2.5 µg/mL (≈ 7.41 µM), the MIC (Staphylococcus aureus; MRSA, S. aureus MMX 5999, MRSA) was 1.5 µg/mL (≈ 4.45 µM) and the MIC (Staphylococcus aureus; MRSA, S. aureus MMX 7899, MRSA) was 1.5 µg/mL (≈ 4.45 µM). The MIC (Staphylococcus aureus; MRSA, S. aureus MMX 7900, MRSA) was 2 µg/mL (≈ 5.93 µM), the MIC (Staphylococcus aureus; MRSA, S. aureus MMX 7901, MRSA) was 2 µg/mL (≈ 5.93 µM) and the MIC (Staphylococcus aureus; MRSA, S. aureus MMX 7902, MRSA) was 2 µg/mL (≈ 5.93 µM). It also gave an MIC (Staphylococcus aureus; MRSA, S. aureus MMX 7903, MRSA) of 1.5 µg/mL (≈ 4.45 µM), an MIC (Staphylococcus aureus; MSSA, S. aureus MMX 2490, MSSA) of 1.5 µg/mL (≈ 4.45 µM) and an MIC (Staphylococcus aureus; MSSA, S. aureus MMX 7907, MSSA) of 3 µg/mL (≈ 8.89 µM). For the same compound, the MIC (Staphylococcus aureus; MSSA, S. aureus MMX 7908, MSSA) was 2 µg/mL (≈ 5.93 µM), the MIC (Staphylococcus aureus; S. aureus MMX 4665, hVISA) was 1.5 µg/mL (≈ 4.45 µM) and the MIC (Staphylococcus aureus; S. aureus MMX 5989, Mu3, hVISA) was 1.5 µg/mL (≈ 4.45 µM). It also gave an MIC (Staphylococcus aureus; [6]) of 1.25 µg/mL (≈ 3.71 µM), an MIC (Staphylococcus aureus; [7]) of 1.5 µg/mL (≈ 4.45 µM) and an MIC (Staphylococcus aureus; VISA, S. aureus MMX 4658, VISA) of 1.5 µg/mL (≈ 4.45 µM). For the same compound, the MIC (Staphylococcus aureus; VISA, S. aureus MMX 4660, VISA) was 2.5 µg/mL (≈ 7.41 µM), the MIC (S. hominis (CoNS)) was 1 µg/mL (≈ 2.96 µM) and the MIC (Streptococci; S. agalactiae MMX 4088) was 1 µg/mL (≈ 2.96 µM). The MIC (Streptococci; S. agalactiae MMX 4115, erm^R) was 1 µg/mL (≈ 2.96 µM), the MIC (Streptococci; [8]) was 0.5 µg/mL (≈ 1.48 µM) and the MIC (Streptococci; S. constellatus (AGS) MMX 5677) was 0.5 µg/mL (≈ 1.48 µM). It also gave an MIC (Streptococci; S. dysgalactiae MMX 5121) of 1 µg/mL (≈ 2.96 µM), an MIC (Streptococci; S. dysgalactiae MMX 5123) of 1 µg/mL (≈ 2.96 µM) and an MIC (Streptococci; S. dysgalactiae MMX 5124) of 1 µg/mL (≈ 2.96 µM). It also gave an MIC (Streptococci; S. mitis (MGS) MMX 5798) of 0.5 µg/mL (≈ 1.48 µM), an MIC (Streptococci; S. oralis (MGS) MMX 5821) of 1 µg/mL (≈ 2.96 µM) and an MIC (Streptococci; S. pneumoniae MMX 432, PRSP) of 1 µg/mL (≈ 2.96 µM). It also gave an MIC (Streptococci; S. pneumoniae MMX 747) of 1 µg/mL (≈ 2.96 µM), an MIC (Streptococci; [9]) of 1 µg/mL (≈ 2.96 µM) and an MIC (Streptococci; S. pyogenes MMX 404 ATCC 19615) of 2 µg/mL (≈ 5.93 µM). The MIC (Streptococci; S. pyogenes MMX 946, ermR) was 1 µg/mL (≈ 2.96 µM), the MIC (Streptococci; S. pyogenes MMX 8778) was 1 µg/mL (≈ 2.96 µM) and the MIC (Clostridium difficile) was 1 µg/mL (≈ 2.96 µM). The MIC (S. lugdenensis (CoNS)) was 0.5 µg/mL (≈ 1.48 µM) and the MIC (S. haemolyticus (CoNS)) was 0.5 µg/mL (≈ 1.48 µM).
